Laboratory results from PMC4368200, “Triclabendazole Sulfoxide Causes Stage-Dependent Embryolethality in Zebrafish and Mouse In Vitro” (PLoS ONE, 2015).
“And” between values parts separate entries of the source, which are not always exact repeats. Equal values may be shown once. Read-outs that look alike come from different tables or passages of the source. Marks after values point to notes of the source that are not given here.

What was measured:
[1] = system: rat embryos explanted at GD 9.5; test: Postimplantation whole embryo culture (postWEC); parameters: species or system Sprague Dawley rats; key to Yolk sac circulation (median): 1 = few/abnormal vessels, 2 = delayed, 3 = complete vascularization; key to Morphological score: sum of structure scores; higher = more advanced differentiation; conditions: for Crown-rump length / Morphological score / Somites number / Yolk sac circulation (median) / Dysmorphogenic embryos: 48 h
Protocol: Nulliparous female rats, which were checked to be in the oestrus phase of the oestrous cycle, were housed with adult males (1:1) for 4 h, considering 2 h of light and 2 h of darkness. Mating was confirmed by the presence of sperm in vaginal smear, and the following 24 h were considered as gestational day 0 (GD 0).
Rat embryos were explanted and evaluated as described before with some variations. Briefly, embryos were explanted at GD 9.5 under sterile conditions. Two embryos were incorporated in flasks filled with 3.5 mL of culture medium which contained 20% of rat serum and 80% of serum mixture (Biochrom AG; Berlin, Germany). TCBZ, TCBZSO, ABZ and ABZSO were dissolved in dimethyl sulfoxide (DMSO; Sigma Aldrich Spain) and added to the culture medium to a final DMSO concentration of 0.1%. Culture flasks were oxygenated at the beginning of the culture with a gas mixture containing 12% O2 and after 38 h with a gas mixture containing 50% O2. Embryos were cultured at a temperature of 38°C, under rotation at a speed of 25 rpm (Noria R, Ovan Spain) for 48 h. After this period, embryos presenting yolk sac circulation and heartbeat were considered alive and were selected for further evaluation. The yolk sac circulation was evaluated according to the level of formation of blood vessels, giving a score of 1 in the cases in which few vessels were observed or the vascularization was abnormal, a score of 2 when a delay in vascularization was observed and 3 for complete vascularization, as previously described in [35]. Growth evaluation was assessed by crown-rump length and differentiation was evaluated by counting the number of somites and the morphological score. This score is the sum of the scores given to several embryonic structures depending on their differentiation stage, corresponding higher values with higher stages of differentiation. Furthermore, the percentage of dysmorphogenesis was calculated according to [36].
For the postWEC experiments, the selected concentrations were 140 μM, 278 μM and 556 μM for TCBZ and 267 μM, 666 μM and 932 μM for TCBZSO. The tested concentrations for ABZ analysis were 0.4 μM, 1.1 μM and 1.9 μM and for ABZSO were 3.4 μM, 9 μM, 12 μM, 14 μM and 16 μM.

[2] = system: zebrafish embryos; test: Zebrafish embryo test (ZFET); assay type: in vivo, Danio rerio; conditions: for Dysmorphogenic embryos / Morphological score: 50 hpf
Protocol: The day before the test, adult male and female zebrafish were transferred (1:1) to breeding tanks (Aquaneering, San Diego, California). Artificial plants and marbles were used as spawning substrate. Spawning and fertilization took place within 30 min after the onset of light in the morning. Eggs were collected and extensively cleaned with ISO-standard 7346 water diluted 1:5 using deionized water. Fertilized eggs were selected under a dissection stereomicroscope (Motic SMZ168, Motic China group, LTD., China). The eggs presenting overt anomalies like asymmetries, formation of vesicles or damaged membranes were discarded.
Exposure and evaluation of eggs was performed as described before with slight variations. At 2 hours post-fertilization (hpf) fertilized eggs were selected and transferred to 6-well plates (Greiner Bio-one, Germany). Ten embryos were randomly distributed into wells and filled with 5 mL of freshly prepared test solutions. TCBZ, TCBZSO, ABZ and ABZSO were dissolved in DMSO and subsequently diluted in 0.3x Danieau’s buffer to a final DMSO concentration of 0.05% (v/v). Embryos were incubated at 26 ± 1°C with a dark-light cycle of 10–14 h for 48 h. Embryolethality was determined at 8 hpf on the basis of egg coagulation, at 26 hpf by the absence of tail detachment or somites formation, and at 50 hpf by the absence of heartbeat. Developmental and teratogenic effects were assessed at 50 hpf by the total morphological score described in [32].
The working concentrations for ZFET experiments were 0.1 μM, 0.5 μM, 1 μM, 2.5 μM and 5 μM for TCBZ studies and 0.5 μM, 1 μM, 2.5 μM, 5 μM, 10 μM and 50 μM for TCBZSO. The experiments with ABZ were performed including concentrations of 0.025 μM, 0.05 μM, 0.1 μM, 0.3 μM and 0.5 μM and for ABZSO they included 1 μM, 6 μM, 12 μM, 25 μM and 50 μM.

[3] = reviewed and transformed to μM by 16; cited from earlier work
[4] = system: rat whole embryo culture; parameters: method as in PMID 22652462; conditions: ref 16; cited from earlier work
[5] = system: zebrafish embryos; conditions: cited from earlier work

CCC[S+]([O-])c1ccc2[nH]c(NC(=O)OC)nc2c1 (stereo not shown) [ABZSO, albendazole sulfoxide]
Crown-rump length ([1]; 3.4 μM): 3.6 ± 0.2 mm | Morphological score ([1]; 3.4 μM): 38.5 ± 2.1 | Somites number ([1]; 3.4 μM): 26.9 ± 1.6 | Yolk sac circulation (median) ([1]; 3.4 μM): 3.0 | Frequency of dysmorphogenesis: Branchial bars ([1]; 9 µM): 23.1% | Frequency of dysmorphogenesis: Caudal part ([1]; 9 µM): 7.7% | Frequency of dysmorphogenesis: Flexion ([1]; 9 µM): 7.7% | Frequency of dysmorphogenesis: Heart ([1]; 9 µM): 7.7% | Frequency of dysmorphogenesis: Subcutaneous blisters ([1]; 9 µM): 30.8% | Frequency of dysmorphogenesis: Yolk sac ([1]; 9 µM): 7.7% | Crown-rump length ([1]; 9 μM): 3.4 ± 0.3 mm | Dysmorphogenic embryos ([1]; 9 μM): 30.8 ^* % | Morphological score ([1]; 9 μM): 35.8 ± 5.2 | Somites number ([1]; 9 μM): 25.0 ± 2.8 | Yolk sac circulation (median) ([1]; 9 μM): 3.0 | Frequency of dysmorphogenesis: Branchial bars ([1]; 12 µM): 10% | Frequency of dysmorphogenesis: Head ([1]; 12 µM): 40% | Frequency of dysmorphogenesis: Subcutaneous blisters ([1]; 12 µM): 40% | Crown-rump length ([1]; 12 μM): 3.6 ± 0.2 mm | Dysmorphogenic embryos ([1]; 12 μM): 40 ^* % | Morphological score ([1]; 12 μM): 38.6 ± 1.2 | Somites number ([1]; 12 μM): 25.5 ± 2.0 | Yolk sac circulation (median) ([1]; 12 μM): 3.0 | Frequency of dysmorphogenesis: Branchial bars ([1]; 14 µM): 63.6% | Frequency of dysmorphogenesis: Caudal part ([1]; 14 µM): 36.4% | Frequency of dysmorphogenesis: Flexion ([1]; 14 µM): 9.1% | Frequency of dysmorphogenesis: Head ([1]; 14 µM): 36.4% | Frequency of dysmorphogenesis: Optic vesicles ([1]; 14 µM): 9.1% | Frequency of dysmorphogenesis: Otic vesicles ([1]; 14 µM): 36.4% | Frequency of dysmorphogenesis: Subcutaneous blisters ([1]; 14 µM): 54.5% | Frequency of dysmorphogenesis: Yolk sac ([1]; 14 µM): 18.2% | Crown-rump length ([1]; 14 μM): 3.4 ± 0.2 mm | Dysmorphogenic embryos ([1]; 14 μM): 72.7 ^* % | Morphological score ([1]; 14 μM): 29.7 ± 6.6 | Somites number ([1]; 14 μM): 22.9 ± 1.6 | Yolk sac circulation (median) ([1]; 14 μM): 2.0 ^* | Frequency of dysmorphogenesis: Branchial bars ([1]; 16 µM): 100% | Frequency of dysmorphogenesis: Caudal part ([1]; 16 µM): 72.7% | Frequency of dysmorphogenesis: Flexion ([1]; 16 µM): 63.6% | Frequency of dysmorphogenesis: Head ([1]; 16 µM): 72.7% | Frequency of dysmorphogenesis: Heart ([1]; 16 µM): 45.5% | Frequency of dysmorphogenesis: Limbs ([1]; 16 µM): 18.2% | Frequency of dysmorphogenesis: Optic vesicles ([1]; 16 µM): 27.3% | Frequency of dysmorphogenesis: Otic vesicles ([1]; 16 µM): 45.5% | Frequency of dysmorphogenesis: Subcutaneous blisters ([1]; 16 µM): 45.5% | Frequency of dysmorphogenesis: Yolk sac ([1]; 16 µM): 63.6% | Crown-rump length ([1]; 16 μM): 3.1 ± 0.6 mm | Dysmorphogenic embryos ([1]; 16 μM): 100 ^* % | Morphological score ([1]; 16 μM): 21.8 ± 6.7 | Somites number ([1]; 16 μM): 19.3 ± 2.4 | Yolk sac circulation (median) ([1]; 16 μM): 1.0 ^* | postWEC LOAEC ([1]; GD 9.5-11.5, 48 h): 9 µM | Lethality ([2]; 1 μM, 2-50 hpf): 0% | Dysmorphogenic embryos ([2]; 1 μM): 0% | Morphological score ([2]; 1 μM): 36.0 ± 0.0 | Frequency of dysmorphogenesis: Cardiac oedema ([2]; 6µM): 3.3% | Lethality ([2]; 6 μM, 2-50 hpf): 0% | Dysmorphogenic embryos ([2]; 6 μM): 3.3% | Morphological score ([2]; 6 μM): 35.7 ± 0.9 | Frequency of dysmorphogenesis: Cardiac oedema ([2]; 12 µM): 10% | Lethality ([2]; 12 μM, 2-50 hpf): 0% | Dysmorphogenic embryos ([2]; 12 μM): 10% | Morphological score ([2]; 12 μM): 35.5 ± 0.6 | Frequency of dysmorphogenesis: Brain necrosis ([2]; 25µM): 100% | Frequency of dysmorphogenesis: Cardiac oedema ([2]; 25µM): 100% | Frequency of dysmorphogenesis: Developmental delay ([2]; 25µM): 100% | Frequency of dysmorphogenesis: Eye pigmentation ([2]; 25µM): 100% | Frequency of dysmorphogenesis: Head-body pigmentation ([2]; 25µM): 100% | Frequency of dysmorphogenesis: Movement ([2]; 25µM): 100% | Lethality ([2]; 25 μM, 2-50 hpf): 13% | Dysmorphogenic embryos ([2]; 25 μM): 100% and 100 ^* % | Morphological score ([2]; 25 μM): 18.0 ± 0.0 | Lethality ([2]; 50 μM, 2-50 hpf): 100% and 100 ^* % | ZFET LOAEC dysmorphogenesis ([2]; 2-50 hpf): 25 µM | ZFET LOAEC lethality ([2]; 2-50 hpf): 50 µM | Plasma concentrations at teratogenic doses [3]: 12.8 ([47]; reviewed and transformed to μM by [16]) | postWEC LOAEC, in vitro literature [4]: 17.7 [16] μM | ZFET LOAEC, in vitro literature ([5]; ref 19): Non observed adverse effects | ZFET LOAEC, in vitro literature ([5]; ref 20): 6.8 µM
